Assay results as given in patent US6825348B2, “Antiviral compounds” (Academia Sinica, priority 2002, dated 2004).
≈ marks a conversion by molar mass, not a printed value. Where two headings read alike, the source gives them in different places.

Tests used:
[1] = system: Vero cells
[2] = system: HeLa cells
[3] = system: moloney murine sarcoma virus (MSV); assay: Inhibition of MSV cytopathogenicity in CEM cells (cell-protection assay); type: cell-based; conditions: CEM cells, average of duplicates; for IC50: Moloney murine sarcoma virus, CCRF-CEM, read-out: IC50 MSV
[4] = system: HIV-2 (LAV-2); assay: Inhibition of HIV-2 cytopathogenicity in MT4 cells; type: cell-based, human immunodeficiency virus; conditions: MT4 cells, average of duplicates; for IC50: Human immunodeficiency virus 2, read-out: IC50 HIV-2 (LAV-2)
[5] = system: thymidine kinase-deficient (TK−) varicella-zoster virus (YS/R); assay: microbe, parasite or virus in culture; type: cell-based
[6] = system: thymidine kinase-positive (TK+) varicella-zoster virus (YS); assay: Inhibition of TK+ VZV cytopathogenicity in Vero cell culture; type: cell-based; conditions: Vero cell culture; 50% inhibition of cytopathogenicity; for 1:1 mixtures IC50 refers to known antiviral drugs
[7] = system: human cytomegalovirus (AD-169); assay: Inhibition of HCMV cytopathogenicity in Vero cell culture; type: cell-based; conditions: Vero cell culture, 50% inhibition of cytopathogenicity, for 1:1 mixtures IC50 refers to known antiviral drugs; for IC50: Human betaherpesvirus 5, AD169, read-out: IC50 HCMV (AD-169)
[8] = system: CEM cells
[9] = system: herpes simplex type 2 virus (HSV-2) (G); assay: Inhibition of HSV-2 cytopathogenicity in Vero cell culture; type: cell-based; conditions: 50% inhibition of cytopathogenicity, for 1:1 mixtures IC50 refers to known antiviral drugs
[10] = system: MT4 cells
[11] = Solubility in water (phosphate buffer, UV absorbance); conditions: for solubility at 20 h: pH 6.8, aqueous buffer, thermodynamic from solid
[12] = system: herpes simplex type 1 virus (HSV-1) (KOS); assay: Inhibition of HSV-1 cytopathogenicity in Vero cell culture; type: cell-based; conditions: Vero cell culture, 50% inhibition of virus-induced cytopathogenicity, mean of duplicates, for 1:1 (W/W) mixtures IC50 refers to known antiviral drugs; for IC50: Human alphaherpesvirus 1, read-out: IC50 HSV-1 (KOS)
[13] = Lipophilicity, 1-octanol/water partition coefficient
[14] = system: HIV-1 (IIIB); assay: microbe, parasite or virus in culture; type: cell-based; conditions: MT4 cells, average of duplicates; for IC50: Human immunodeficiency virus 1, IIIB, read-out: IC50 HIV-1 (IIIB)
[15] = system: Vero cells; assay: Toxicity, morphological changes in Vero cells
[16] = system: HSV-1 (KOS); assay: Anti-HSV-1 activity in vivo, HSV-1-induced mortality in NMRI mice; conditions: 6 days; for mean day of animal death / mean day of symptom initiation: terminated day 21; for responders at 100 mg/kg / responders at 150 mg/kg / responders at 250 mg/kg: Human alphaherpesvirus 1, ip, 504 h
[17] = system: MT4 cells; assay: Toxicity toward MT4 cells
[18] = system: HeLa cells; assay: Toxicity, morphological changes in HeLa cells
[19] = system: CEM cells; assay: Toxicity toward CEM cells
[20] = molecular target: PRPP synthetase (UniProt P0A717); assay: PRPP synthetase reaction, conversion to diphosphates and inhibition of AMP phosphorylation; type: biochemical; conditions: inhibition of AMP phosphorylation, 37° C., 15 min
Procedure: Enzymatic Conversion of Acyclic Nucleoside Phosphonates and Nucleotide 5′-Monophosphate Analog to Their Antivirally Active Diphosphates (Triphosphate Equivalents). Substrate affinities of acyclic nucleoside phosphonates 4, 20, 21, and dinucleotide analog 24 for PRPP synthetase as well as their inhibitory effect against the enzyme were evaluated according to the established procedures. See, e.g., Balzarini et al. (1991) J. Biol. Chem. 266: 8686-8689 and references cited therein. The assays were then terminated after 4 h by the addition of MeOH. HPLC on an anion-exchange Partisphere column was used to analyze the formation of […] 21pp, PMEApp, 4pp, 20pp, and 24pp.

[21] = molecular target: T1, calf mucosal adenosine deaminase (ADA, EC 3.5.4.4) (Bos taurus, UniProt P56658); assay: Substrate activity and competitive inhibition of adenosine deaminase; type: biochemical; conditions: for Ki: inhibition of ADA with ara-A 3 as substrate
T1 sequence (P56658 1-363): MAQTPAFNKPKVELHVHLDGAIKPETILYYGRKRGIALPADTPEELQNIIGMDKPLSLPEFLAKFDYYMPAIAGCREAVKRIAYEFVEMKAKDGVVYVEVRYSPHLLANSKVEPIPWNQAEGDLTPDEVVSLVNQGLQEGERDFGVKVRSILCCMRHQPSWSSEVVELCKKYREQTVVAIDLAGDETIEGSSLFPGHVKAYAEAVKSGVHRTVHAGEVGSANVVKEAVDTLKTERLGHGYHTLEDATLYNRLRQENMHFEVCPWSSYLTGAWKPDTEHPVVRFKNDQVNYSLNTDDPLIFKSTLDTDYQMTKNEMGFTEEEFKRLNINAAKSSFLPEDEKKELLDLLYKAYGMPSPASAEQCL

[22] = system: MSV; conditions: for mean day of animal death / percentage of MSV-infected mice alive at day 21 postinfection / percentage of MSV-infected mice without tumors at day 21 postinfection: two injections; for mean day of tumor initiation: two injections within two days
[23] = 100 mg/kg/day i.p., read-out: percentage of HSV-1-infected mice alive at day 21 postinfection
[24] = 100 mg/kg/day i.p., read-out: percentage of HSV-1-infected mice without symptoms at day 21 postinfection
[25] = 150 mg/kg/day i.p., read-out: percentage of HSV-1-infected mice alive at day 21 postinfection
[26] = 150 mg/kg/day i.p., read-out: percentage of HSV-1-infected mice without symptoms at day 21 postinfection
[27] = 250 mg/kg/day i.p., read-out: percentage of HSV-1-infected mice alive at day 21 postinfection
[28] = 250 mg/kg/day i.p., read-out: percentage of HSV-1-infected mice without symptoms at day 21 postinfection

## [1-(Guanine-9-yl-ethoxy)methyl]phosphono-6-yl-(Z)-4-(ethylidene)-2,3-dimethoxy-Δ^a,b-butenolide [Compound 29]
[1]
  Vero cell, concentration causing microscopically visible change or disruption in about 50% of the cell sheet: 6.6 µg/mL
[2]
  HeLa cell, concentration causing microscopically visible change or disruption in about 50% of the cell sheet: 8.8 µg/mL
[3]
  IC50 MSV: 0.020 µg/mL
[4]
  IC50 HIV-2 (LAV-2): 7.1 µg/mL
[5]; Vero cell culture, 50% inhibition of cytopathogenicity, for 1:1 mixtures IC50 refers to known antiviral drugs
  IC50 TK−VZV (YS/R): 0.0080 µg/mL
[6]
  IC50 TK+VZV (YS): 0.0070 µg/mL
[7]
  IC50 HCMV (AD-169): 0.020 µg/mL
[8]
  CEM cell, concentration reducing the number of viable uninfected cells by 50%: 13 µg/mL
[9]
  IC50 HSV-2 (G): 0.28 µg/mL
[10]
  MT4 cell, concentration reducing the number of viable uninfected cells by 50%: 14 µg/mL
[11]; phosphate buffer 0.10 M, pH 6.8, agitated 20 h
  solubility in water: 2050 µg/mL
[12]
  IC50 HSV-1 (KOS): 0.42 µg/mL
[13]; P = [substrate]1-octanol/[substrate]H2O, phosphate buffer 0.10 M
  log P (1-octanol/water): 0.79
[14]
  IC50 HIV-1 (IIIB): 6.0 µg/mL

## Nc1ncnc2ncn(CCOCP(=O)(O)O)c12 [Compound 20, 7-[2-(Phosphonomethoxy)ethyl]adenine]
[15]
  Vero cell, concentration causing microscopically visible change or disruption in about 50% of the cell sheet: 246 µg/mL
[16]; 100 mg/kg/day i.p.
  mean day of animal death: 15.4 ± 1.3 days
  mean day of symptom initiation: 12.8 ± 1.1 days
[16]; 150 mg/kg/day i.p.
  mean day of animal death: 17.8 ± 1.5 days
  mean day of symptom initiation: 15.0 ± 0.9 days
[16]; 250 mg/kg/day i.p.
  mean day of animal death: 20.0 ± 1.7 days
  mean day of symptom initiation: 16.8 ± 2.4 days
[16]; [23]
  responders at 100 mg/kg: 70%
[16]; [24]
  responders at 100 mg/kg: 51%
[16]; [25]
  responders at 150 mg/kg: 80%
[16]; [26]
  responders at 150 mg/kg: 62%
[16]; [27]
  responders at 250 mg/kg: 95%
[16]; [28]
  responders at 250 mg/kg: 75%
[17]
  MT4 cell, concentration reducing the number of viable uninfected cells by 50%: >300 µg/mL
[18]
  HeLa cell, concentration causing microscopically visible change or disruption in about 50% of the cell sheet: 236 µg/mL
[3]
  IC50: 27 µg/mL (≈ 98.8 µM)
[4]
  IC50: 9.1 µg/mL (≈ 33.3 µM)
[5]; Human alphaherpesvirus 3, Vero, read-out: IC50 TK−VZV (YS/R)
  IC50: 8 µg/mL (≈ 29.3 µM)
[19]
  CEM cell, concentration reducing the number of viable uninfected cells by 50%: >300 µg/mL
[7]
  IC50: 21 µg/mL (≈ 76.9 µM)
[11]
  solubility at 20 h: 2890 µg/mL (≈ 10600 µM)
[20]
  Ki: 16.7 mM
[12]
  IC50: 20 µg/mL (≈ 73.2 µM)
[13]
  logP at […]: 0.95
[21]
  ADA substrate / inhibitor property in words: neither a good substrate nor an inhibitor
  Ki: > 0.8 mM
[14]
  IC50: 7.8 µg/mL (≈ 28.6 µM)

## Nc1ncnc2c1ncn2CCOCP(=O)(O)O [PMEA 4, 9-[2-(phosphonomethoxy)ethyl]adenine, reference compound]
[15]
  Vero cell, concentration causing microscopically visible change or disruption in about 50% of the cell sheet: 175 µg/mL
[16]; 100 mg/kg/day i.p.
  mean day of animal death: 17.0 ± 1.1 days
  mean day of symptom initiation: 14.7 ± 1.4 days
[16]; 150 mg/kg dose level i.p.
  protection against HSV-induced mortality: full protection
[16]; 150 mg/kg/day i.p.
  mean day of animal death: >21 days
  mean day of symptom initiation: 18.5 ± 1.9 days
[16]; 250 mg/kg/day i.p.
  mean day of animal death: >21 days
  mean day of symptom initiation: >21 days
[16]; [23]
  responders at 100 mg/kg: 77%
[16]; [24]
  responders at 100 mg/kg: 56%
[16]; [25]
  responders at 150 mg/kg: 100%
[16]; [26]
  responders at 150 mg/kg: 80%
[16]; [27]
  responders at 250 mg/kg: 100%
[16]; [28]
  responders at 250 mg/kg: 100%
[17]
  MT4 cell, concentration reducing the number of viable uninfected cells by 50%: 274 µg/mL
[18]
  HeLa cell, concentration causing microscopically visible change or disruption in about 50% of the cell sheet: 146 µg/mL
[3]
  IC50: 2 µg/mL (≈ 7.32 µM)
[4]
  IC50: 3.8 µg/mL (≈ 13.9 µM)
[19]
  CEM cell, concentration reducing the number of viable uninfected cells by 50%: 285 µg/mL
[7]
  IC50: 15 µg/mL (≈ 54.9 µM)
[11]
  solubility at 20 h: 1970 µg/mL (≈ 7210 µM)
[20]
  Ki: 3.02 mM
[22]; 10 mg/kg/day i.p.
  mean day of animal death: 13.0 ± 1.1 days
  percentage of MSV-infected mice alive at day 21 postinfection: (42%)
  percentage of MSV-infected mice without tumors at day 21 postinfection: (19%)
  mean day of tumor initiation: 9.6 ± 1.5 days
[22]; 10 mg/kg/day i.p., listed as 4
  percentage of MSV-infected mice without tumors at day 21 postinfection: 19%
[22]; 20 mg/kg/day i.p.
  mean day of animal death: 15.9 ± 1.7 days
  percentage of MSV-infected mice alive at day 21 postinfection: (76%)
  percentage of MSV-infected mice without tumors at day 21 postinfection: (58%)
  mean day of tumor initiation: 12.0 ± 1.3 days
[22]; 50 mg/kg/day i.p.
  mean day of animal death: 17.8 ± 2.0 days
  percentage of MSV-infected mice alive at day 21 postinfection: (96%)
  percentage of MSV-infected mice without tumors at day 21 postinfection: (84%)
  mean day of tumor initiation: 12.5 ± 1.6 days
[12]
  IC50: 11 µg/mL (≈ 40.3 µM)
[13]
  logP at […]: 0.69
[21]
  ADA substrate / inhibitor property in words: neither a good substrate nor an inhibitor
  Ki: > 0.8 mM
[14]
  IC50: 4.1 µg/mL (≈ 15 µM)
